According to publication PMC8570331, “8-Hydroxyquinoline-Amino Acid Hybrids and Their Half-Sandwich Rh and Ru Complexes: Synthesis, Anticancer Activities, Solution Chemistry and Interaction with Biomolecules” (International Journal of Molecular Sciences, 2021):
Marks after values point to notes of the source that are not given here.

How the values were obtained:
[1] = biological target: T1, HSA site II (subdomain IIIA) (Homo sapiens, UniProt P02768); assay: Dansylglycine (DG) site marker displacement, spectrofluorometry; format: binding; details: cHSA = 1 µM, cDG = 1 µM, pH 7.4 (PBS’)
T1 construct: purchased Sigma-Aldrich A8763
Method: Tryptophan (Trp-214) quenching and dansylglycine (DG) site marker displacement experiments were performed to calculate binding constants for site I and II, respectively, similar to our previous works.
Fluorescence measurements were carried out on a Fluoromax (Horiba Jobin Yvon, Longjumeau, France) spectrofluorometer using 1 cm × 1 cm quartz cuvette. Samples contained 1 µM HSA or 1 µM DG and 1 µM HSA, or 20 µM (nucleotide) ct-DNA and 5 µM EB, and the complex concentration was varied between 0 and 40 µM or 0 and 300 µM, respectively. Spectroscopic measurements were carried out on individually prepared samples. Excitation wavelengths were 295 nm for Trp-214 quenching, 340 nm for the DG displacement studies and 510 nm for the ct-DNA–EB system. The calculated conditional stability constants for HSA–complex species were obtained using the computer program HypSpec. Calculations always were based on data obtained from at least two independent measurements. Self-absorbance and inner filter effect had to be taken into account, and corrections were made as was described in our former works.

[2] = Proton dissociation and H2O/Cl- exchange constants of the complexes (UV-vis, 1H NMR); format: physicochemical; details: T = 25.0 °C; for pKa1 of the complex / pKa2 of the complex: I = 0.2 M KNO3; for logK′ (H2O/Cl−) conditional exchange constant: pH 7.4
Method: In the basic pH range, both the UV-vis and ^1H NMR spectra recorded for the [M(arene)(H2O)3]^2+–ligand (1:1) systems reveal the further chemical transformation of the [M(arene)(HQCl-D-(h)ProH−1)(H2O)]^+ species. […] It should be noted that peaks of the p-cymene CH3 groups are doubled at pH > 10 (Figure S21b), indicating the loss of their symmetry due to the formation of the hydroxido complex, which probably blocks the free rotation of the arene ligand. Two pKa values were determined by both methods for each RuCym complex that is in good agreement (Table 3).
These deprotonation processes take place at somewhat higher pH in the case of the RhCp* complexes compared to the RuCym compounds; however, other differences were also observed.
Thus, only one pKa value could be computed (Table 3), which is rather assigned to the H2O → OH^− process. The peaks of the protons in the ^1H NMR spectra located nearby the metal center (both 8-hydroxyquinoline CH and CH3 protons of RhCp*) and the peaks of the homoproline moiety are shifted by increasing the pH (Figure S22b,c). […] Due to this side-reaction, no pKa values were calculated from the ^1H NMR spectra.
Based on the determined pKa values of the complexes (Table 3), it can be concluded that at physiological pH all of them are present predominantly in their [M(arene)(HQCl-D-(h)ProH−1)(H2O)]^+ form. However, in the presence of chloride ions, the exchange of the aqua ligand to the halide ligand is possible. The water/chloride co-ligand exchange process was monitored spectrophotometrically at pH 7.4, as it was performed for other RuCym and RhCp* complexes in our previous works. […] It can be concluded that the RhCp* complexes have stronger chloride ion affinity. The coordination of the chloride ion changes the charge of the complex; thus, it will also influence lipophilicity. In order to characterize the hydrophilic/lipophilic character of the complexes, n-octanol/buffer aqueous solution partitioning was performed at pH 7.4. The measurements were performed at three kinds of chloride ion concentrations regarding different biofluids (4, 24 and 100 mM for nucleus, cytosol and blood, respectively). The calculated logD7.4 values can be found in Figure 8.
Agilent Cary 8454 diode array spectrophotometer was utilized to obtain UV-vis spectra in the wavelength range 190–1100 nm. The path length (ℓ) was 1 cm in most cases (the actual ℓ is always indicated in the legends of the figures). The concentrations of the ligands and complexes were between 88 and 240 µM. For HSA and ct-DNA containing samples, complex concentrations were 100 µM, and 0.5 and 2 equiv. biomolecule were added for kinetic studies, respectively. Individual samples contained 0–20 µM HSA and 0–1.75 mM (nucleotide) ct-DNA. Spectra were always background corrected. The computer program HypSpec was used to obtain stability constants.
Bruker Avance III HD Ascend 500 Plus instrument (Billerica, MA, USA) was used for NMR studies. ^1H NMR spectroscopic measurements were carried out with a WATERGATE water suppression pulse scheme in the presence of 10% (v/v) D2O in most cases. DSS internal standard was added to samples to obtain reference peaks. Complex concentrations were 0.5 mM or 1.0 mM, and 0.5 equiv. HSA was added. ^1H NMR titrations were carried out in the presence of 0.2 M KNO3. With the FHA model peptide, the measurements were performed at 0.5 or 1 mM metal complex concentrations, and 1:1, 1:2 or 2:1 peptide-to-metal complex ratios were applied. The computer program HypSpec was used to obtain stability constants.

T1 sequence (P02768 25-609): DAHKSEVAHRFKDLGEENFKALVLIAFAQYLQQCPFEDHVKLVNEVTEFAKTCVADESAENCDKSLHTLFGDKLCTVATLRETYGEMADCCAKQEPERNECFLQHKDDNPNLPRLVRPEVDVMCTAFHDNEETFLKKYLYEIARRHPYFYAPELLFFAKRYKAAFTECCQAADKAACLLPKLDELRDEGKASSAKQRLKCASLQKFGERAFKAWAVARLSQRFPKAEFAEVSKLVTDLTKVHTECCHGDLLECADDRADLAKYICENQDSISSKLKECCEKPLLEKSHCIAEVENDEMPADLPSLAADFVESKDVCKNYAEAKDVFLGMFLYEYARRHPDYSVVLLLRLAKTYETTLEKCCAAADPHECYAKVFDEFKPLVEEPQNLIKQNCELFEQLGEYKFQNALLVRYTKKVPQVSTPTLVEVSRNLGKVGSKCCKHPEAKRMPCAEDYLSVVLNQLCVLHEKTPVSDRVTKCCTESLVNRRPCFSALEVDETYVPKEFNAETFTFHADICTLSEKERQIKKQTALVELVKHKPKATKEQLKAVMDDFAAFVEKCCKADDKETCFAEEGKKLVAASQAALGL

Row | Structure (SMILES) | DG Displacement logKDG′, Site II [1] | pKa1 of the complex ([2]; 1H NMR) | pKa2 of the complex ([2]; 1H NMR) | logK′ (H2O/Cl−) conditional exchange constant ([2]; UV-vis) | pKa1 of the complex ([2]; UV-vis, chloride-free) | pKa2 of the complex ([2]; UV-vis, chloride-free)
1 | Cc1c(C)c(C)[c-](C)c1C.O=C(O)[C@H]1CCCC[NH+]1Cc1cc(Cl)c2cccnc2c1[O-].[Cl-].[Cl-].[Rh+3] [RhCp*–HQCl-D-hPro, [RhCp*(HQCl-D-hPro)Cl]Cl] | 5.4 ± 0.1 | 9.82 ± 0.13 ^a | 10.06 ± 0.06 ^b | 1.79 ± 0.01 | 10.11 ± 0.02 | –
2 | Cc1ccc(C(C)C)cc1.O=C(O)[C@H]1CCC[NH+]1Cc1cc(Cl)c2cccnc2c1[O-].[Cl-].[Cl-].[Ru+2] [RuCym–HQCl-D-Pro, [RuCym(HQCl-D-Pro)Cl]Cl] | 5.6 ± 0.1 | 9.02 ± 0.07 | 10.69 ± 0.06 | 1.18 ± 0.01 | 8.96 ± 0.01 | 10.67 ± 0.01
3 | Cc1ccc(C(C)C)cc1.O=C(O)[C@H]1CCCC[NH+]1Cc1cc(Cl)c2cccnc2c1[O-].[Cl-].[Cl-].[Ru+2] [RuCym–HQCl-D-hPro, [RuCym(HQCl-D-hPro)Cl]Cl] | 5.7 ± 0.1 | 8.77 ± 0.05 | 10.13 ± 0.04 | 1.28 ± 0.01 | 8.78 ± 0.01 | 10.03 ± 0.02
4 | Cc1c(C)c(C)[c-](C)c1C.O=C(O)[C@H]1CCC[NH+]1Cc1cc(Cl)c2cccnc2c1[O-].[Cl-].[Cl-].[Rh+3] [RhCp*–HQCl-D-Pro, [RhCp*(HQCl-D-Pro)Cl]Cl] | 5.5 ± 0.1 | – | – | 1.72 ± 0.01 | 10.08 ± 0.02 | –
